Test [1] has as its target T1, VRAC (Homo sapiens, UniProt Q8IWT6).
T1 sequence (Q8IWT6 1-810): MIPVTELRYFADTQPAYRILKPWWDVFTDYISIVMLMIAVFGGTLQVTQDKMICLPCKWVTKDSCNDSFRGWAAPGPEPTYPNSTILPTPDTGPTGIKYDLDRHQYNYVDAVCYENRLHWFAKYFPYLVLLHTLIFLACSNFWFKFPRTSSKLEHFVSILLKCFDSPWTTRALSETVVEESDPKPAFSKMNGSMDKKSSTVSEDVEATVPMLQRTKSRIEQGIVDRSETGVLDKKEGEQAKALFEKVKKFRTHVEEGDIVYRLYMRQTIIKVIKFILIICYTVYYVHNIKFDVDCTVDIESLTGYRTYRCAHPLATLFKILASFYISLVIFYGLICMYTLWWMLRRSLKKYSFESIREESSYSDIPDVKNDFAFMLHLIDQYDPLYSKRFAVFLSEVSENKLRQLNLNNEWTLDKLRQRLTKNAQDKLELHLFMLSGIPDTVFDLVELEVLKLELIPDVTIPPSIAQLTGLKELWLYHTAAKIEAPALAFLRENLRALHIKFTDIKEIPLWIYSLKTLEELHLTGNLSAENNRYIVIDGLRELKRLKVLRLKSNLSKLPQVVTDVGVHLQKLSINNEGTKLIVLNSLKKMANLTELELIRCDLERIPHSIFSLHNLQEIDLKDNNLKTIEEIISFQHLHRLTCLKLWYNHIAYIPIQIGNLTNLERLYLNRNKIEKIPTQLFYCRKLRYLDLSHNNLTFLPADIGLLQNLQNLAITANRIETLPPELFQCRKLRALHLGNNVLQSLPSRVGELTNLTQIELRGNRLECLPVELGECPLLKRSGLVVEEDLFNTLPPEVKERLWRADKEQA
Put plainly: FLIPR YFP-quenching assay: hypotonicity-induced iodide influx into HEK cells expressing YFP(H148Q/I152L). The class given is cell-based. Further details: Swelling-induced iodide influx into HEK cells, which display typical ICl(swell) currents; endogenous in cells; host or cells: HEK293: a clone inducibly expressing YFP(H148Q/I152L) in A1, and HEK cells in A2. Conditions: hypotonic saline with 50 mM iodide, inhibitor included in the iodide-containing solution. An excerpt: To identify VRAC we opted for a genome-wide RNA interference screen that could identify non-redundant VRAC components even if the channel were a heteromer. Swelling-induced iodide influx into HEK cells, which display typical ICl(swell) currents (Nilius et al., 2001, Hernandez-Carballo et al.), was used as readout (FIG. 1A). We generated a clonal HEK cell line expressing a yellow fluorescent protein variant YFP(H148Q/I152L) whose fluorescence is efficiently quenched by iodide (Galietta et al.). The assay used the FLIPR™ fluorometric imaging plate reader system which allows parallel pipetting and continuous fluorescence measurements of all wells. The solution covering the cells was exchanged to a hypotonic or isotonic (control) saline containing 50 mM iodide and YFP fluorescence was followed over time (FIG. 1B). Compatible with a background permeation pathway for I^− the fluorescence decayed slowly in I^−-containing isotonic control solution. […]
The YFP-quenching assay was performed 72 h post-transfection. After having exchanged the cell culture medium in all wells of the plate with 10 μl of isotonic solution (in mM: 145 NaCl, 5 KCl, 1 MgCl2, 2 CaCl2, 10 glucose, 10 HEPES pH 7.4, 329 mOsm) in a Tecan Freedom EVO 200 workstation, the plates were transferred into the FLIPR™ (Molecular Devices) High Throughput Cellular Screening Device and fluorescence measurements were initiated. […]

In another test the test system is Ras-transformed cells. Particulars: Ras-transformed cells compared to WT cells; cited from earlier work.
The target in test [2] is T1, VRAC. Further details: host or cells: human epidermis cancer cells. Conditions: human epidermis cancer cells; cited from earlier work.

Each structure is given as a SMILES string.

On to `CCCCC1(C2CCCC2)Cc2cc(OCCCC(=O)O)c(Cl)c(Cl)c2C1=O` (stereo not shown) [DCPIB], for which, on VRAC [1], the “inhibition of hypotonicity-induced decrease in YFP fluorescence (quenching by iodide)” value is listed as “partially inhibited”.

For the compound `O=C(Nc1cc(C(F)(F)F)cc(C(F)(F)F)c1)Nc1ccc(Br)cc1-c1nnn[nH]1` [NS3728], the “inhibition of cell migration” value with Ras-transformed cells was “inhibit cell migration more strongly in Ras-transformed cells compared to WT cells”. Turning to `CC1(C)[C@@H](OC(=O)CCC(=O)O)CC[C@]2(C)[C@H]3C(=O)C=C4[C@@H]5C[C@@](C)(C(=O)O)CC[C@]5(C)CC[C@@]4(C)[C@]3(C)CC[C@@H]12` [carbenoxolone], at VRAC [1], the “inhibition of hypotonicity-induced decrease in YFP fluorescence (quenching by iodide)” value is “partially inhibited”. As for `N.N.[Cl][Pt][Cl]` [cisplatin], the “effect on VRAC” value at VRAC [2] is on record as “activate VRAC”.

(Values after patent US9927423B2, “LRRC8 proteins and protein complexes and methods for identification of channel modulators” (MAX-DELBRUECK-CENTRUM FUER MOLEKULARE MEDIZIN, priority 2014, dated 2018).)
